The source made the active and inactive calls. How the calls were made is not given here.

The test system of the assay is L. donovani-infected THP-1 macrophages, intracellular amastigote imaging. As to the kind of experiment: antileishmanial activity in infected THP-1 macrophages – imaging, THP-1 host macrophages, host toxicity (AID 1159564).
The mark [1] stands for this setting: measured here: THP-1 host cell toxicity.
Setting [2] is: measured here: amastigotes per macrophage.

In the case of `O=C(NCC1CCCCC1)c1cc(=O)c2ccccc2o1`, the 50% inhibitory concentration (IC50) was 16 µM. Under setting [1], this compound yielded an IC50 of less than 50 µM. The compound further yielded a concentration for half-maximal inhibition (IC50) under setting [2] of 6.3 µM.

Take `CN(C)Cc1ccc(-c2ccc(S(=O)(=O)NCC3CCCO3)c(F)c2)cc1` (centres undefined): the IC50 is > 63 µM (inactive). The compound further displayed an IC50 under setting [1] of 63 µM. The half-inhibitory concentration (IC50) under setting [2] is greater than 63 µM.

For `COc1ccc(Cl)cc1CC(=O)Nc1n[nH]c(-c2ccccn2)n1`, the half-maximal inhibitory concentration (IC50) is 6.3 µM. The compound further yielded a half-maximal inhibitory concentration (IC50) under setting [1] greater than 50 µM. For the same compound, the half-maximal inhibitory concentration (IC50) under setting [2] was determined as 5 µM.

As for `CS(=O)(=O)NC1CCC(Oc2cc3cnccc3cc2-c2ccsc2)CC1` (centres undefined), the concentration for half-maximal inhibition (IC50) is 50 µM. Moreover, the IC50 under setting [1] is 16 µM. The same compound registered an IC50 under setting [2] of 20 µM.

As for `O=S(=O)(NCC(c1cccnc1)N1CCN(c2ccccc2F)CC1)c1ccc(F)cc1` (centres undefined), the IC50 was > 50 µM (inactive). The IC50 under setting [1] was greater than 50 µM. Further, the 50% inhibitory concentration (IC50) under setting [2] was determined as 4 µM.

As to `Cc1nc2c(-c3n[nH]c(-c4ccccc4N)n3)cccn2c1C`, the IC50 was 1.6 µM. Under setting [1], this compound gave a 50% inhibitory concentration (IC50) of 7.9 µM. For the same compound, the IC50 under setting [2] stood at 1 µM.

Turning to `Cc1cc(=O)n2nc(Oc3ccc(C#N)cc3Cl)sc2n1`, the half-maximal inhibitory concentration (IC50) was 32 µM. For the same compound, the IC50 under setting [1] is 32 µM. The IC50 under setting [2] amounted to 32 µM.

`O=C(CCc1ccc(-c2ccccc2)o1)N1CCN(c2ccc(O)cc2)CC1`: the IC50 was 4 µM. The compound further had an IC50 under setting [1] greater than 50 µM. In addition, the half-maximal inhibitory concentration (IC50) under setting [2] came out at 1.3 µM.

Consider `O=C(Nc1ccc(S(=O)(=O)N2CCCC2)cc1)c1ccc([N+](=O)[O-])s1`, for which the concentration for half-maximal inhibition (IC50) is 1.6 µM. For the same compound, under setting [1], the 50% inhibitory concentration (IC50) is greater than 50 µM. Under setting [2], this compound yielded an IC50 of 1 µM.

For `CNc1cc(C)nc(C2CN(C(=O)c3n[nH]c4ccccc34)CCO2)c1` (centres undefined), the IC50 was > 50 µM (inactive). In addition, the 50% inhibitory concentration (IC50) under setting [1] was greater than 50 µM. Besides, under setting [2], the half-maximal inhibitory concentration (IC50) is greater than 50 µM.

Regarding `c1cc(-c2ncc(-c3ccn[nH]3)s2)ccn1`, the IC50 is > 50 µM (inactive). The compound further showed a 50% inhibitory concentration (IC50) under setting [1] greater than 50 µM. Also, the IC50 under setting [2] came to 10 µM.

On to `Cc1[nH]nc(-c2nc3ccccc3[nH]2)c1C(=O)NC1CCCNC1` (centres undefined), for which the IC50 is 6.3 µM. The compound also registered a 50% inhibitory concentration (IC50) under setting [1] of 1.6 µM. This compound also showed a 50% inhibitory concentration (IC50) under setting [2] of 6.3 µM.

Turning to `COc1ncc(-c2ccc3ncnc(N4CCOCC4)c3c2)cc1NS(C)(=O)=O`, the concentration for half-maximal inhibition (IC50) is 5 µM. Also, the IC50 under setting [1] is 1 µM. Under setting [2], the half-maximal inhibitory concentration (IC50) came out at 0.63 µM.

Regarding `CC(=O)Nc1ccc(CN2CCC(N3CC(c4ccccc4)(c4ccccc4)OCC3=O)CC2)cc1`, the IC50 was 25 µM. Further, under setting [1], the IC50 came to 40 µM. Under setting [2], the IC50 was determined as 20 µM.

As for `COc1cccc(-c2cc(C(F)(F)F)nc(-n3ccc([N+](=O)[O-])n3)n2)c1`, the IC50 is > 50 µM (inactive). Also, under setting [1], the concentration for half-maximal inhibition (IC50) is greater than 50 µM. In addition, the half-maximal inhibitory concentration (IC50) under setting [2] is greater than 50 µM.

In the case of `O=c1[nH]ccc2ccc(-c3ccncc3)cc12`, the IC50 was > 50 µM (inactive). Further, the IC50 under setting [1] was determined as 40 µM. The compound also displayed an IC50 under setting [2] of 20 µM.

As for `CCC(=O)Nc1ccc(-c2nc3ccc(Cl)cc3[nH]2)cc1`, the IC50 was > 50 µM (inactive). In addition, the IC50 under setting [1] is greater than 50 µM. Further, the IC50 under setting [2] is greater than 50 µM.

For the compound `CC(C)n1c(-c2nonc2N)nc2cccc(OCCN3CCCC3)c21`, the half-maximal inhibitory concentration (IC50) was 32 µM. This compound had a 50% inhibitory concentration (IC50) under setting [1] of 32 µM. The IC50 under setting [2] is 20 µM.

Take `c1ccc2[nH]c(-c3ccc(N4CCCC4)nc3)nc2c1`: the IC50 is > 50 µM (inactive). This compound gave an IC50 under setting [1] of 32 µM. This compound also displayed a half-inhibitory concentration (IC50) under setting [2] greater than 50 µM.

In the case of `O=[N+]([O-])c1cccc(Nc2cncc(-c3ccccc3CO)c2)c1`, the IC50 is > 50 µM (inactive). Under setting [1], the IC50 is greater than 50 µM. For the same compound, the IC50 under setting [2] was greater than 50 µM.

In the case of `COc1cccc(Nc2cc(C)nc(-c3ccccn3)n2)c1`, the IC50 is 2 µM. The 50% inhibitory concentration (IC50) under setting [1] is greater than 50 µM. This compound also returned an IC50 under setting [2] of 1.3 µM.

In the case of `Cc1ccccc1OCC(=O)N1CCCN(c2cccnn2)CC1`, the IC50 was > 50 µM (inactive). The compound also had a half-maximal inhibitory concentration (IC50) under setting [1] greater than 50 µM. Further, under setting [2], the half-inhibitory concentration (IC50) was greater than 50 µM.

Regarding `CC1CCCN(S(=O)(=O)c2ccc(C(=O)Nc3nc(-c4ccccn4)cs3)cc2)C1` (centres undefined), the IC50 was 0.25 µM. Further, the IC50 under setting [1] is 5 µM. For the same compound, under setting [2], the IC50 was found to be 0.16 µM.

Regarding `O=C(CN(Cc1ccccn1)Cc1ccccn1)NC1Cc2ccccc2C1`, the concentration for half-maximal inhibition (IC50) is 5 µM. This compound returned an IC50 under setting [1] greater than 79 µM. In addition, the half-maximal inhibitory concentration (IC50) under setting [2] is 5 µM.

As for `CCOc1ccc(N(C)S(=O)(=O)c2ccc3[nH]cc(C(=O)NC4CCCC4)c(=O)c3c2)cc1`, the IC50 is 32 µM. Under setting [1], this compound had an IC50 of 25 µM. Under setting [2], this compound displayed a 50% inhibitory concentration (IC50) of 32 µM.

On to `OCCCNc1nc(Nc2ccncc2)nc2ccccc12`, for which the IC50 is > 50 µM (inactive). Besides, the IC50 under setting [1] is greater than 50 µM. For the same compound, under setting [2], the IC50 is greater than 50 µM.

As to `CNC(=O)Oc1ccc(C(=O)NCc2ccccc2)cc1OC(=O)NC`, the IC50 was > 50 µM (inactive). This compound gave a concentration for half-maximal inhibition (IC50) under setting [1] greater than 50 µM. This compound also yielded a half-maximal inhibitory concentration (IC50) under setting [2] greater than 50 µM.

Consider `O=C1CSC(c2cccnc2)N1c1ccc(Cl)cc1Cl` (centres undefined), for which the IC50 is > 50 µM (inactive). This compound returned a 50% inhibitory concentration (IC50) under setting [1] greater than 50 µM. Under setting [2], the concentration for half-maximal inhibition (IC50) was greater than 50 µM.

As a reminder, the IC50 is the concentration needed to halve the response being measured.

The record behind these values is PubChem BioAssay AID1159564 (GlaxoSmithKline (GSK), 2015).
